Source: ChEMBL document CHEMBL4765416, “Design, synthesis, and evaluation of pyrrolidine based CXCR4 antagonists with in vivo anti-tumor metastatic activity” (Eur J Med Chem, 2020)
One block for each molecule: values may come before it. Active and inactive are the calls of the source. The rule behind the calls is not given here.

How the values were obtained:
[1] = target: T1, C-X-C chemokine receptor type 4 (Homo sapiens, UniProt P61073); assay: Inhibition of APC-conjugated anti-human CXCR4 clone 12G5 binding to CXCR4 in human HPBALL cells measured after 3 hrs by FACS analysis; type: cell-based
[2] = Half life in rat liver microsomes at 1 uM peincubated for 10 mins followed by NADPH addition and measured 60 mins by LC-MS/MS analysis; type: ADME, Microsome; details: time 70 min
[3] = Intrinsic clearance in rat liver microsomes at 1 uM peincubated for 10 mins followed by NADPH addition and measured 60 mins by LC-MS/MS analysis; type: ADME, Microsome; details: time 70 min, read-out: CLH
[4] = target: T1, C-X-C chemokine receptor type 4; assay: Antagonist activity at CXCR4 in human CD4-positive T cells assessed as inhibition of CXCL12-induced cytosolic calcium flux preincubated for 20 mins followed by CXCL12 addition by calcium 4 dye based FLIPR TETRA analysis; type: functional, cell-based, T cell
[5] = target: T1, C-X-C chemokine receptor type 4; assay: Antagonist activity at CXCR4 in human MDA-MB-231 cells assessed as inhibition of CXCL12-induced cell migration at 100 nM measured after 24 hrs by crystal violet staining based matrigel invasion assay; details: filed as antagonist
[6] = Protein binding in mouse plasma at 1 uM; type: ADME, cell-free; details: read-out: PPB (converted)
[7] = target: Voltage-gated inwardly rectifying potassium channel KCNH2 (Homo sapiens, UniProt Q12809); assay: Inhibition of human ERG stably expressed in CHO cells at -80 mV holding potential measured after 4 mins by Qpatch electrophysiological assay; type: cell-based
[8] = Cytotoxicity against […] Hepa1-6 cells assessed as reduction in cell proliferation up to 1000 nM by ATP-based celltiter-glo luminescent assay
[9] = target: T2, CYP3A4 (Homo sapiens, UniProt P08684); assay: Inhibition of CYP3A4 in human liver microsomes at 10 uM using testosterone as substrate preincubated for 10 mins followed by NADPH addition measured after 10 mins by LC-MS/MS analysis relative to control; type: ADME; details: probe testosterone, time 20 min
[10] = Protein binding in human plasma at 1 uM; type: ADME, cell-free; details: read-out: PPB (converted)
[11] = 1-Octanol/water partition coefficient, log P of compound at pH 7.4 measured after 24 hrs by shake flask method; type: physicochemical
[12] = system: MEF; assay: Cytotoxicity against MEF cells assessed as reduction in cell proliferation up to 1000 nM by ATP-based celltiter-glo luminescent assay; details: mouse
[13] = Half life in human liver microsomes at 1 uM peincubated for 10 mins followed by NADPH addition and measured 60 mins by LC-MS/MS analysis; type: ADME, Microsome; details: time 70 min
[14] = system: Lewis lung carcinoma; assay: Antimetastatic activity against RFP-labelled LL2 cells allografted in C57BL6 mouse assessed as reduction in metastatic lung nodules at 70 mg/kg, ip treated 30 mins prior to tumor implantation followed by redosing at 3 hrs post tumor implantation and subsequent daily dosing for 18 days by fluorescence assay; type: functional, organism-based; details: time 18.0 day
[15] = target: T3, C-X-C chemokine receptor type 1 (Homo sapiens) (UniProt P25024); assay: Antagonist activity at CXCR1 (unknown origin) expressed in HEK293 cells assessed as suppression of IL-8-induced inhibition of forskolin-induced cAMP formation up to 10 uM preincubated for 15 mins followed by forskolin and IL-8 stimulation and measured after 15 mins by cAMP-d2 and Eu-Anti-cAMP based fluorescence assay; type: functional, cell-based; details: dose microM <=10, time 30.0 min
T3 sequence (whole entry): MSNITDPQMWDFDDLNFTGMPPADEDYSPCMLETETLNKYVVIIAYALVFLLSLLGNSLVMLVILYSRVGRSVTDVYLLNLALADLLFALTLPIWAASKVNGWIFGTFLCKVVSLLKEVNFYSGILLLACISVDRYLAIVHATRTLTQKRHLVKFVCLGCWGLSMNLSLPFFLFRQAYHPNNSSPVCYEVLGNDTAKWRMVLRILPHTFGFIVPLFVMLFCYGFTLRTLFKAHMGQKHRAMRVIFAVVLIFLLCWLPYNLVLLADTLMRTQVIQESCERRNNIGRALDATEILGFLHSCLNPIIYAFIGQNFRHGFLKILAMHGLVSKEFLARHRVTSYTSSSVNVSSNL

[16] = target: CYP2C9 (Homo sapiens, UniProt P11712); assay: Inhibition of CYP2C9 in human liver microsomes at 10 uM using tolbutamide as substrate preincubated for 10 mins followed by NADPH addition measured after 10 mins by LC-MS/MS analysis relative to control; type: ADME; details: probe tolbutamide
[17] = system: MDA-MB-231; assay: Cytotoxicity against human MDA-MB-231 cells assessed as reduction in cell proliferation up to 1000 nM by ATP-based celltiter-glo luminescent assay
[18] = target: T4, CYP1A2 (Homo sapiens, UniProt P05177); assay: Inhibition of CYP1A2 in human liver microsomes at 10 uM using phenacetin as substrate preincubated for 10 mins followed by NADPH addition measured after 10 mins by LC-MS/MS analysis relative to control; type: ADME; details: probe phenacetin, time 20 min
T4 sequence (P05177 whole entry): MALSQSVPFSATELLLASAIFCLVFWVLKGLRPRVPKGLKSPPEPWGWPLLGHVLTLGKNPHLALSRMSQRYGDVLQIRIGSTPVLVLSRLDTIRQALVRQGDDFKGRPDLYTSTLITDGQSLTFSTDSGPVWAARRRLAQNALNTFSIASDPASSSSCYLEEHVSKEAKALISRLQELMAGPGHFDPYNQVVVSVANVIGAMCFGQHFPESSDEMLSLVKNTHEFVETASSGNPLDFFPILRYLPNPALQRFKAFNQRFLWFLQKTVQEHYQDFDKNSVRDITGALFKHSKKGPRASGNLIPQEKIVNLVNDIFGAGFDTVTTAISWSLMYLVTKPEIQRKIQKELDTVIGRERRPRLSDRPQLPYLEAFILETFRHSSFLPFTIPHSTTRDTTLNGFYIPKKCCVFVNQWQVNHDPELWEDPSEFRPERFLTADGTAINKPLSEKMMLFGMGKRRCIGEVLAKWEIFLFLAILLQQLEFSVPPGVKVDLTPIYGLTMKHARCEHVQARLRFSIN

[19] = Dissociation constant, basic pKa of compound by titration method; type: physicochemical
[20] = target: T5, C-C chemokine receptor type 6 (Homo sapiens) (UniProt P51684); assay: Antagonist activity at CCR6 in human CD4-positive T cells assessed as inhibition of CCL20-induced cytosolic calcium flux up to 10 uM by calcium 4 dye based FLIPR TETRA analysis; type: functional; details: T cell, dose microM <=10
T5 sequence (whole entry): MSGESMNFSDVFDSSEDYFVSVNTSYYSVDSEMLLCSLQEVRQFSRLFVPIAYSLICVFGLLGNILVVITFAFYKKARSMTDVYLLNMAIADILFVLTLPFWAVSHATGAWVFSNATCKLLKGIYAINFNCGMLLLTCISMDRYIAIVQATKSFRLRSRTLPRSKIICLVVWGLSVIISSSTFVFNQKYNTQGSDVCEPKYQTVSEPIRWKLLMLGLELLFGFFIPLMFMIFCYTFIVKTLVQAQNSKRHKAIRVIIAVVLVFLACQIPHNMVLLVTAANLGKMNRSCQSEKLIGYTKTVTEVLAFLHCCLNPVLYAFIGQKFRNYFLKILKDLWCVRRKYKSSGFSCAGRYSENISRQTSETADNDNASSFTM

[21] = Protein binding in rat plasma at 1 uM; type: ADME, cell-free; details: read-out: PPB (converted)
[22] = system: L929; assay: Cytotoxicity against mouse L929 cells assessed as reduction in cell proliferation up to 1000 nM by ATP-based celltiter-glo luminescent assay
[23] = Intrinsic clearance in human liver microsomes at 1 uM peincubated for 10 mins followed by NADPH addition and measured 60 mins by LC-MS/MS analysis; type: ADME, Microsome; details: time 70 min, read-out: CLH
[24] = target: CYP2D6 (Homo sapiens, UniProt P10635); assay: Inhibition of CYP2D6 in human liver microsomes at 10 uM using dextromethorphan as substrate preincubated for 10 mins followed by NADPH addition measured after 10 mins by LC-MS/MS analysis relative to control; type: ADME; details: probe dextromethorphan, time 20 min
[25] = target: T2, CYP3A4; assay: Inhibition of CYP3A4 in human liver microsomes at 10 uM using midazolam as substrate preincubated for 10 mins followed by NADPH addition measured after 10 mins by LC-MS/MS analysis relative to control; type: ADME; details: probe midazolam, time 20 min
[26] = target: CYP2C19 (Homo sapiens, UniProt P33261); assay: Inhibition of CYP2C19 in human liver microsomes at 10 uM using S-mephenytoin as substrate preincubated for 10 mins followed by NADPH addition measured after 10 mins by LC-MS/MS analysis relative to control; type: ADME; details: probe S-mephenytoin, time 20 min
CYP2C19, sequence (P33261 whole entry): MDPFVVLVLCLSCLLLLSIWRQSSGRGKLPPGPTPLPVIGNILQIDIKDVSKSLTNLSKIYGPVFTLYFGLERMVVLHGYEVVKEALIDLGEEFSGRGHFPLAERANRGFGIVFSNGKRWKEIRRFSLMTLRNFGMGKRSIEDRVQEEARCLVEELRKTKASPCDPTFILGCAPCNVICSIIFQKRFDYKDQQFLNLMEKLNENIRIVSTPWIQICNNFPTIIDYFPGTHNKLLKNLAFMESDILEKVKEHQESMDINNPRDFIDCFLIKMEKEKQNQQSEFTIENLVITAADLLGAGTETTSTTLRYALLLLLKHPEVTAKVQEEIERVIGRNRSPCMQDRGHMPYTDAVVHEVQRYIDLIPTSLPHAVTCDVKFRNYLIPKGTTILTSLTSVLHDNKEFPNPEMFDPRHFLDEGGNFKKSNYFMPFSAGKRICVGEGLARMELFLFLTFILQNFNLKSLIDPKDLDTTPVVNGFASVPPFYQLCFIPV

T1 sequence (P61073 whole entry): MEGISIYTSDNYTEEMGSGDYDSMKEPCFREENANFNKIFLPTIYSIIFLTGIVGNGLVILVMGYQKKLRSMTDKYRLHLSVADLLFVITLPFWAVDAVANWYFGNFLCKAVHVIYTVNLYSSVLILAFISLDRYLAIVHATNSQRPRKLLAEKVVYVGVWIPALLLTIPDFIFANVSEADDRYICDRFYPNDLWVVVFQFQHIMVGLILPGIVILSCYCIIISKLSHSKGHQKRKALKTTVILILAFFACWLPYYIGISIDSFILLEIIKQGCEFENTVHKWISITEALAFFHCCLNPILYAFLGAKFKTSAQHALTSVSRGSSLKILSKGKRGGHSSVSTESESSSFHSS
T2 sequence (P08684 whole entry): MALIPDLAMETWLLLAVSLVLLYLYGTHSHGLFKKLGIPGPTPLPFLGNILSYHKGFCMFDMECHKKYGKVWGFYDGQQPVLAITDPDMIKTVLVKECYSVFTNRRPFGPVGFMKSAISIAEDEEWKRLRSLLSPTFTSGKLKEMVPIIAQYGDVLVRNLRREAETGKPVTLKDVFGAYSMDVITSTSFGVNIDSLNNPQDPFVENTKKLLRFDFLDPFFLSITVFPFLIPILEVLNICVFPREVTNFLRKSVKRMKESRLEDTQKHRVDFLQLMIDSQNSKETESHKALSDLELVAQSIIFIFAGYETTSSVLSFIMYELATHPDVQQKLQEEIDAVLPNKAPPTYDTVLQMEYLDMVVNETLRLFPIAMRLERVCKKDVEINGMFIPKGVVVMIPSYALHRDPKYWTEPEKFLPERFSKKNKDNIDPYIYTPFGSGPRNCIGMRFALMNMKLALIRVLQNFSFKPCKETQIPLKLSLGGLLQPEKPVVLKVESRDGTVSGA
CYP2C9, sequence (P11712 whole entry): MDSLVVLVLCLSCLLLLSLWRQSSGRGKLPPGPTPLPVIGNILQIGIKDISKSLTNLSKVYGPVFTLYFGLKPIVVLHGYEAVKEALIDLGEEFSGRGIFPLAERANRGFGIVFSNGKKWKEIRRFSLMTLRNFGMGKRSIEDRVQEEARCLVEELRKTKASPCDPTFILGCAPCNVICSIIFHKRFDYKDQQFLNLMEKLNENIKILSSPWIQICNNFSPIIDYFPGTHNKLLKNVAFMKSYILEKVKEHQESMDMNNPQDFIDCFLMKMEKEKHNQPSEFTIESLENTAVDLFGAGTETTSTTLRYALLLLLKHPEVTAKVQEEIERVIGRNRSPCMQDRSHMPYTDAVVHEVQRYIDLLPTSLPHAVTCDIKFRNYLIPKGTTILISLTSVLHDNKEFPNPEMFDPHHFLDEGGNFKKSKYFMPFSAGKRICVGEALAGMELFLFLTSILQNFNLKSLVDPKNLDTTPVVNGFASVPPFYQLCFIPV
Voltage-gated inwardly rectifying potassium channel KCNH2, sequence (Q12809 whole entry): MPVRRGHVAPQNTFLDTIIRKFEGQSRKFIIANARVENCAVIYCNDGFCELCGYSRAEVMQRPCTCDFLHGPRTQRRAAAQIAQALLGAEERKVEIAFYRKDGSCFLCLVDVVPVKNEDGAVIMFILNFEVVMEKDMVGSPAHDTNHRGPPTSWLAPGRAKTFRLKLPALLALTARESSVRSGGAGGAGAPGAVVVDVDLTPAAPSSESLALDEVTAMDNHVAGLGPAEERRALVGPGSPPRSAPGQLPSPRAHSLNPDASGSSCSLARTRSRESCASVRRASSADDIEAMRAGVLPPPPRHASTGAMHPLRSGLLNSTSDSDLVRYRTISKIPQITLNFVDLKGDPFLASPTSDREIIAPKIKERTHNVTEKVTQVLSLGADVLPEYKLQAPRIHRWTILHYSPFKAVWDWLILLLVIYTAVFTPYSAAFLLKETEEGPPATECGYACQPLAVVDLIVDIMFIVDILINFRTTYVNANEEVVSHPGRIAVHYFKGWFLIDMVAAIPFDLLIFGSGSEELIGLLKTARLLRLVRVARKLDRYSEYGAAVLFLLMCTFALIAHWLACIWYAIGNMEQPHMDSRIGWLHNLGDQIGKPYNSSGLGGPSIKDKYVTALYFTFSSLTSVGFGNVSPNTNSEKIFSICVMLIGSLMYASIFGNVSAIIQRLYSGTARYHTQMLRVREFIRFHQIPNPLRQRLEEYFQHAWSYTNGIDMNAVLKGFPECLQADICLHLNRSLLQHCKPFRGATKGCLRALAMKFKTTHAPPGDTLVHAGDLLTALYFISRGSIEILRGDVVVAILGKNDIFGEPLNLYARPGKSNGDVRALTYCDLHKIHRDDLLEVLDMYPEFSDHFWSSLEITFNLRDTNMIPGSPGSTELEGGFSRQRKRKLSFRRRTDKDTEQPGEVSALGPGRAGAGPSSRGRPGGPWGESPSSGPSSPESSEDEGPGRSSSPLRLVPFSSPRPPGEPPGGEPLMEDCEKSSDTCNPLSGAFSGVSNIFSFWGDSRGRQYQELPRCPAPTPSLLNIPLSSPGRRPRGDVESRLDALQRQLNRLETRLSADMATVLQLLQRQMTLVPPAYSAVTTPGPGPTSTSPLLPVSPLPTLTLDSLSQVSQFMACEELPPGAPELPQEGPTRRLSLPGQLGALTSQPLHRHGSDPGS
CYP2D6, sequence (P10635 whole entry): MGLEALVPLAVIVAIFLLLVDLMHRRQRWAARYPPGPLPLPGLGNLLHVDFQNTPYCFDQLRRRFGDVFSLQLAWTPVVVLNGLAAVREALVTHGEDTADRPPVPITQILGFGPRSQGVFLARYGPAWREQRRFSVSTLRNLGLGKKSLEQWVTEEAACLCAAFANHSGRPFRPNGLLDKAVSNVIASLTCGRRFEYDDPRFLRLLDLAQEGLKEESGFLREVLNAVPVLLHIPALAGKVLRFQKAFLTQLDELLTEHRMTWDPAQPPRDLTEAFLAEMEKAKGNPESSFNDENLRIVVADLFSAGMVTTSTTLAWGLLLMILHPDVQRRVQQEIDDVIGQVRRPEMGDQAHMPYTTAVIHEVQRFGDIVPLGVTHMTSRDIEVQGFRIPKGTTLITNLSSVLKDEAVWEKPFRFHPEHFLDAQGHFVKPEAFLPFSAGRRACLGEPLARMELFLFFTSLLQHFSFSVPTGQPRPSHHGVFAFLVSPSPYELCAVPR

Compound: Cc1nc(CN2CCC[C@@H]2c2ccccn2)cc(N2CCN(C)CC2)n1
IC50 [1]: > 10000 nM

Compound: Cc1nc(CN(C)[C@H]2CCCc3cccnc32)cc(N2CCN(C)[C@H](C)C2)n1
half-life at 1 µM [2]: < 1 min
CLint scaled at 1 µM [3]: > 497 mL/min/kg

Compound: CN1CCN(c2cc(CN(C)C3CCCc4cccnc43)nc(N)n2)CC1 (centres undefined)
half-life at 1 µM [2]: 3.24 min
CLint scaled at 1 µM [3]: 767 mL/min/kg

Compound: Cc1nc(CN(C)[C@H]2CCCc3cccnc32)cc(N2C[C@@H](C)N(C)[C@@H](C)C2)n1
half-life at 1 µM [2]: < 1 min
CLint scaled at 1 µM [3]: > 497 mL/min/kg

Compound: Cc1nc(CN2CCC[C@H]2c2ncccc2C)cc(N2CCN(C)CC2)n1
fraction unbound at 1 µM [6]: 0.67
IC50 [4]: 0.25 nM
IC50 [7]: > 30000 nM
Activity [8]: Non-Toxic
inhibition at 10 min, 10 µM [9]: -4%
fraction unbound at 1 µM [10]: 0.05
half-life at 1 µM [2]: 20.2 min
logD at 24 h [11]: 1.12
Activity [12]: Non-Toxic
half-life at 1 µM [13]: 26.2 min
Activity [14]: Active
inhibition [15]: inactive
inhibition [5]: Active
IC50 [1]: 79 nM
inhibition at 10 min, 10 µM [16]: 1%
Activity [17]: Non-Toxic
inhibition at 10 min, 10 µM [18]: -6%
pKa [19]: 8.2
inhibition [20]: inactive
fraction unbound at 1 µM [21]: 0.56
Activity [22]: Non-Toxic
CLint scaled at 1 µM [23]: 66 mL/min/kg
inhibition at 10 min, 10 µM [24]: -5%
CLint scaled at 1 µM [3]: 123 mL/min/kg
inhibition at 10 min, 10 µM [25]: 7%
inhibition at 10 min, 10 µM [26]: 11%

Compound: Cc1nc(CN(C)[C@H]2CCCc3cccnc32)cc(N2CCN(C)[C@@H](C)C2)n1
half-life at 1 µM [2]: 1.6 min
CLint scaled at 1 µM [3]: 1550 mL/min/kg

Compound: Cc1ccnc([C@@H]2CCCN2Cc2cc(N3CCN(C)CC3)nc(C)n2)c1
IC50 [1]: 216 nM

Compound: Cc1nc(CN(C)[C@H]2CCCc3cccnc32)cc(N2CCN(C)CC2)n1
half-life at 1 µM [2]: 1.59 min
CLint scaled at 1 µM [3]: 1570 mL/min/kg

Compound: CN1CCN(c2cccc3nc(CN(C)[C@H]4CCCc5cccnc54)c(CO)n23)CC1
half-life at 1 µM [2]: 3.82 min
CLint scaled at 1 µM [3]: 651 mL/min/kg

Second part, the molecule after the results:

IC50 [4]: 0.4 nM
Compound: Cc1nc(CN2CCC[C@H]2c2ncccc2C)cc(N2CCCN(C)CC2)n1

inhibition [5]: Active
Compound: c1cc(CN2CCCNCCNCCCNCC2)ccc1CN1CCCNCCNCCCNCC1

IC50 [1]: 2390 nM
Compound: Cc1cccc([C@@H]2CCCN2Cc2cc(N3CCN(C)CC3)nc(C)n2)n1

IC50 [1]: 620 nM
Compound: Cc1nc(CN2CCCCC2c2ccccn2)cc(N2CCN(C)CC2)n1 (centres undefined)
